The values below come from US20120053148A1, “INHIBITORS OF HEPATITIS C VIRUS” (GILEAD SCIENCES, INC., priority 2010, published 2012).

The subject of the test is HCV Replicon IB. Kind of test: HCV replicon assay in Huh-7 cells, genotype 1b (Rluc luciferase readout). It is filed as cell-based, hepatitis C virus. As to conditions: for inhibition at 10 µM: 72 h, 1b-Rluc replicon, read-out: Inhibition @ 10 uM in 1b-Rluc; for EC50: read-out: EC50_HCV1B_.
The mark [1] stands for this setting: Hepatitis C virus, Huh-7 cells, 3 days.
Where [2] appears, read: Hepatitis C virus, Huh-7, 72 h, HCV1B replicon, Huh-7 cells, 3 days.
Where [3] appears, read: HCV1B replicon, Huh-7 cells, 3 days.

Where two headings read alike, the source gives them in different places.

The term inhibition denotes how much of the control response was suppressed. `Cc1cc(C(=O)NCc2ccccn2)nc2c(OC(F)(F)F)cc(C3CC3)cc12` [Compound 234]: the inhibition at 10 µM under setting [1] is 100%.

With `Cc1cc(-c2nnc(N(CO)CC3OCCO3)o2)nc2c(C(C)(C)C)cc(C3CC3)cc12` [Compound 404], the EC50 under setting [2] was determined as 2.18 nM.

In the case of `CC(C)(O)CCNc1nnc(-c2cc(N)c3cc(C4CC4)cc(C(C)(C)C)c3n2)s1` [Compound 383], the EC50 under setting [2] is 4.85 nM.

With `COCCCNC(=O)c1cc(C)c2cc(C3CC3)cc(C(F)(F)F)c2n1` [Compound 120], the inhibition at 10 µM under setting [1] turned out to be 99.8%.

`CCOCCOCCOCCCNc1nnc(-c2cc(C)c3cc(C4CC4)cc(C(F)(F)F)c3n2)s1` [Compound 293]: under setting [1], the inhibition at 10 µM worked out at 96%.

On to `Cc1cc(-c2nnc(NCCCO)s2)nc2c(C(F)(F)F)cc(C3CC3)cc12` [Compound 286], for which the inhibition at 10 µM under setting [1] came out at 99.9%.

With `O=C(NC[C@@H]1C[C@@H](F)CN1)c1cc(Cl)c2cc(OC(F)F)cc(C(F)(F)F)c2n1` (single isomer, unassigned) [Compound 199], under setting [1], the inhibition at 10 µM stood at 98.1%.

With `CC(C)(C)c1cc(OCC(F)(F)F)cc2c(Cl)cc(-c3nnc(NCC4OCCO4)o3)nc12` [Compound 522], the EC50 under setting [2] came out at 5.85 nM.

Take `Cc1cc(-c2nnc(NC[C@H]3CCCO3)o2)nc2c(C(C)(C)C)cc(C3CC3)cc12` [Compound 397]: the EC50 under setting [2] was 3.17 nM.

As to `Cc1cc(-c2nnc(NCCC(C)(C)O)s2)nc2c(C(F)(F)F)cc(C3CC3)cc12` [Compound 295], under setting [1], the inhibition at 10 µM was 98.1%.

Consider `Cc1cc(-c2nnc(NCC3(CO)CC3)s2)nc2c(C(F)(F)F)cc(C3CC3)cc12` [Compound 306], for which the EC50 under setting [2] worked out at 1410 nM.

Regarding `Cc1cc(-c2nnc(Nc3ccccn3)o2)nc2c(C(C)(C)C)cc(C3CC3)cc12` [Compound 402], the EC50 under setting [2] is 2.86 nM.

As to `Cc1cc(-c2nnc(NC3CSC3)o2)nc2c(C(C)(C)C)cc(OCC(F)(F)F)cc12` [Compound 505], under setting [2], the EC50 came to 6.25 nM.

Consider `CO[C@@H]1CNC(CNc2nnc(-c3cc(C)c4cc(C5CC5)cc(C(F)(F)F)c4n3)s2)C1` (stereo partly shown) [Compound 311], for which the EC50 under setting [2] was 1140 nM.

For `COC(C)(C)c1cc(C2CC2)cc2c(C)cc(-c3nnc(NCC4OCCO4)o3)nc12` [Compound 545], the EC50 under setting [2] is 7.68 nM.

As to `CC(=O)c1cc(C(F)(F)F)c2nc(C(=O)NCc3ccccn3)cc(C)c2c1` [Compound 160], the inhibition at 10 µM under setting [1] came to 93.5%.

For `CCC(=O)CNC(=O)c1cc(Cl)c2cc(OC(F)F)cc(C(F)(F)F)c2n1` [Compound 205], the inhibition at 10 µM under setting [1] amounted to 99.2%.

Take `Cc1cc(C(=O)NCC2CCCCC2)nc2c(C(F)(F)F)cc(-c3ccccc3)cc12` [Compound 172]: the inhibition at 10 µM under setting [1] stood at 95.2%.

For the compound `Nc1cc(C(=O)NCC2COCCN2)nc2c(C(F)(F)F)cc(C3CC3)cc12` (stereo not shown) [Compound 218], the inhibition at 10 µM under setting [1] is 99.9%.

As to `Cc1cc(-c2nnc(NS(C)(=O)=O)s2)nc2c(C(F)(F)F)cc(C3CC3)cc12` [Compound 289], the inhibition at 10 µM under setting [1] came out at 70.7%.

On to `CS(=O)(=O)N1CCNC(CNC(=O)c2cc(N)c3cc(OC(F)F)cc(C(F)(F)F)c3n2)C1` (stereo not shown) [Compound 318], for which the EC50 under setting [2] was 44400 nM.

Turning to `Cc1cc(C(=O)NCC2(N)CC2)nc2c(C(F)(F)F)cc(C3CC3)cc12` [Compound 88], the inhibition at 10 µM under setting [1] came out at 95.6%.

On to `Cc1cc(-c2nnc(N[C@H]3C[C@@](O)(CO)C3)o2)nc2c(C(C)(C)C)cc(C3CC3)cc12` [Compound 514], for which the EC50 under setting [2] came out at 11.2 nM.

Consider `CO[C@@H]1CNC(CNC(=O)c2cc(C)c3cc(C4CC4)cc(OC(F)(F)F)c3n2)C1` (stereo partly shown) [Compound 438], for which the EC50 under setting [2] turned out to be 46 nM.

For the compound `CC#Cc1cc(C(F)(F)F)c2nc(C(=O)NCc3ccccn3)cc(C)c2c1` [Compound 148], under setting [1], the inhibition at 10 µM came out at 99.5%.

For the compound `Cc1cc(C(=O)NCc2ccccn2)nc2c(C(F)(F)F)cc(OCC(F)(F)F)cc12` [Compound 189], the inhibition at 10 µM under setting [1] is 99.8%.

Take `CCC(O)CNC(=O)c1cc(Cl)c2cc(OC(F)F)cc(C(F)(F)F)c2n1` (stereo not shown) [Compound 204]: the inhibition at 10 µM under setting [1] is 95.5%.

In the case of `Cc1nnc(-c2cc(OC(F)(F)F)cc3c(N)cc(C(=O)NCc4ccccn4)nc23)[nH]1` [Compound 339], the EC50 under setting [2] is 1230 nM.

For `Cc1cc(-c2nnc(Nc3ccccc3)o2)nc2c(C(F)(F)F)cc(C3CC3)cc12` [Compound 242], the inhibition at 10 µM under setting [1] was determined as 100%.

On to `Cc1cc(-c2nnc(N[C@H]3C[C@@H](O)C3)s2)nc2c(C(C)(C)C)cc(OCC(F)(F)F)cc12` [Compound 518], for which, under setting [2], the EC50 stood at 51.3 nM.

On to `COCCNC(=O)CNC(=O)c1cc(C)c2cc(C3CC3)cc(C(F)(F)F)c2n1` [Compound 117], for which, under setting [1], the inhibition at 10 µM was found to be 94.7%.

`Cc1cc(-c2nnc(NCCCCO)o2)nc2c(C(F)(F)F)cc(C3CC3)cc12` [Compound 258]: the inhibition at 10 µM under setting [1] came to 100%.

In the case of `COC[C@]1(O)C[C@H](Nc2nnc(-c3cc(C)c4cc(OCC(F)(F)F)cc(C(C)(C)C)c4n3)o2)C1` [Compound 504], under setting [3], the EC50 was 9.86 nM.

As for `CC(C)(C)c1cc(C2CC2)cc2c(N)cc(-c3nnc(NCC(F)(F)F)o3)nc12` [Compound 345], the EC50 under setting [2] was 560 nM.

As to `Cc1cc(-c2nnc(NC3CC(O)C3)o2)nc2c(C(C)(C)C)cc(C3CC3)cc12` (stereo not shown) [Compound 420], under setting [2], the EC50 is 3.1 nM.

As to `Cc1cc(-c2nnc(NCCCS(N)(=O)=O)o2)nc2c(C(C)(C)C)cc(C3CC3)cc12` [Compound 393], the EC50 under setting [2] amounted to 1200 nM.

For `Cc1cc(-c2nnc(NCC3COC(C)(C)O3)o2)nc2c(C(C)(C)C)cc(C3CC3)cc12` (stereo not shown) [Compound 415], the EC50 under setting [2] is 85 nM.

Take `Cc1cc(-c2nnc(NCC(C)(C)CO)o2)nc2c(C(F)(F)F)cc(C3CC3)cc12` [Compound 260]: under setting [1], the inhibition at 10 µM stood at 96.7%.

Take `CC(C)(C)c1cc(C2CC2)cc2c(N)cc(-c3nnc(NCC(F)(F)CO)o3)nc12` [Compound 372]: the EC50 under setting [2] was 1.95 nM.

On to `Cc1cc(-c2nnc(NCCS(N)(=O)=O)o2)nc2c(C(C)(C)C)cc(C3CC3)cc12` [Compound 395], for which, under setting [2], the EC50 came to 34.4 nM.

In the case of `CO[C@@H]1CN[C@H](CNC(=O)c2cc(N)c3cc(C4CC4)cc(C(C)(C)C)c3n2)C1` [Compound 328], the EC50 under setting [2] was 15.9 nM.

With `Cc1cc(-c2nnc(NCCCS(N)(=O)=O)o2)nc2c(C(F)(F)F)cc(C3CC3)cc12` [Compound 267], under setting [1], the inhibition at 10 µM was 97.7%.

In the case of `Cc1cc(-c2nnc(Nc3cccnc3)o2)nc2c(C(C)(C)C)cc(OCC(C)(C)O)cc12` [Compound 537], the EC50 under setting [2] amounted to 69.1 nM.

For the compound `CC[C@]1(O)C[C@@H](Nc2nnc(-c3cc(C)c4cc(OCC(F)(F)F)cc(C(C)(C)C)c4n3)o2)C1` [Compound 478], the EC50 under setting [2] was determined as 1.48 nM.

With `Cc1cc(-c2nnc(NCC3S(=O)(=O)CCS3(=O)=O)o2)nc2c(C(C)(C)C)cc(OCC(F)(F)F)cc12` [Compound 484], under setting [2], the EC50 was determined as 2190 nM.

With `Cc1cc(-c2nnc(NCC[C@H](C)O)s2)nc2c(C(C)(C)C)cc(C3CC3)cc12` [Compound 385], the EC50 under setting [3] stood at 1.73 nM.

`Cc1cc(-c2nnc(NCC3OCCS3)o2)nc2c(C(C)(C)C)cc(OCC(F)(F)F)cc12` (stereo not shown) [Compound 479]: the EC50 under setting [2] was 1.14 nM.

For `Cc1cc(C(=O)NCc2ccccn2)nc2c(C(F)(F)F)cc(C3CC3(C)C)cc12` (stereo not shown) [Compound 142], the inhibition at 10 µM under setting [1] turned out to be 99.4%.

Turning to `Cc1cc(-c2nnc(NCCS(C)(=O)=O)o2)nc2c(C(F)(F)F)cc(C3CC3)cc12` [Compound 265], the inhibition at 10 µM under setting [1] worked out at 98%.

With `Cc1cc(-c2nnc(NCC3(C#N)CC3)o2)nc2c(C(F)(F)F)cc(C3CC3)cc12` [Compound 268], the inhibition at 10 µM under setting [1] came to 99.4%.

As for `Cc1cc(-c2nnc(N[C@H]3C[C@@H](O)C3)o2)nc2c(C(C)(C)C)cc(OCC(C)C)cc12` [Compound 534], under “Hepatitis C virus, Huh-7, 72 h”, the EC50 came out at 154 nM.

As for `Cc1cc(C(=O)NC[C@@H]2COCCN2)nc2c(C(F)(F)F)cc(C3CC3(F)F)cc12` (stereo partly shown) [Compound 155], the inhibition at 10 µM under setting [1] is 99.7%.

Consider `Cc1cc(C(=O)NCCNc2ccccn2)nc2c(C(F)(F)F)cc(C3CC3)cc12` [Compound 129], for which the inhibition at 10 µM under setting [1] stood at 94.9%.

As to `O=C(NCc1ccccn1)c1cnc2cc(-c3ccccc3)cc(C(F)(F)F)c2n1` [Compound 173], the inhibition at 10 µM under setting [1] worked out at 86.3%.

With `Cc1cc(C(=O)NC[C@@H]2CS(=O)(=O)CCN2)nc2c(C(C)(C)C)cc(C3CC3)cc12` [Compound 426], under setting [2], the EC50 amounted to 6.27 nM.

In the case of `Cc1cc(C(=O)NCc2ccccn2)nc2c(C(F)(F)F)cc(C#CC(C)(C)C)cc12` [Compound 145], under setting [1], the inhibition at 10 µM came out at 72%.

`CC(C)(C)c1cc(C2CC2)cc2c(N)cc(-c3nnc(NC4CCCC4)o3)nc12` [Compound 348]: under setting [2], the EC50 came out at 5.27 nM.

Regarding `CC(C)(C)c1cc(C2CC2)cc2c(N)cc(-c3nnc(NCc4ccccn4)o3)nc12` [Compound 347], the EC50 under setting [2] came out at 7.54 nM.

For the compound `Cc1cc(-c2nnc(N[C@H]3C[C@H](O)C3)o2)nc2c(C(C)(C)C)cc(C3CC3)cc12` [Compound 422], the EC50 under setting [2] worked out at 5.55 nM.

For `Cc1cc(-c2nnc(NC[C@H]3C[C@@H](O)C3)o2)nc2c(C(C)(C)C)cc(C3CC3)cc12` [Compound 417], the EC50 under setting [2] amounted to 6.11 nM.

Take `Cc1cc(-c2nnc(N[C@H]3C[C@@](C)(O)C3)o2)nc2c(C(C)(C)C)cc(C3CC3)cc12` [Compound 423]: the EC50 under setting [2] was found to be 1.35 nM.

As for `Cc1cc(C(=O)NCC2(NC(=O)OC(C)(C)C)CC2)nc2c(C(F)(F)F)cc(C3CC3)cc12` [Compound 87], the inhibition at 10 µM under setting [1] stood at 84.5%.

As to `Cc1cc(-c2nnc(N[C@H]3C[C@@](C)(O)C3)o2)nc2c(C(C)(C)C)cc(OC(F)F)cc12` [Compound 525], the EC50 under setting [2] is 0.74 nM.

On to `Cc1cc(-c2nnc(Nc3cn[nH]c3)s2)nc2c(C(F)(F)F)cc(C3CC3)cc12` [Compound 313], for which the EC50 under setting [2] was determined as 10.2 nM.

As to `Cc1cc(-c2nnc(NCC3CCS(=O)(=O)C3)o2)nc2c(C(F)(F)F)cc(C3CC3)cc12` (stereo not shown) [Compound 266], the inhibition at 10 µM under setting [1] was 90.6%.

With `Cc1cc(C(=O)NC[C@@H]2CC3(CN2)OCCO3)nc2c(C(F)(F)F)cc(OCC(F)(F)F)cc12` [Compound 511], the EC50 under setting [2] came out at 32.3 nM.

Consider `Cc1cc(-c2nnc(NCCCO)o2)nc2c(C(F)(F)F)cc(C3CC3)cc12` [Compound 249], for which the inhibition at 10 µM under setting [1] came out at 100%.
